Experimental data: publication PMC3306375, “A Unique Modification of the Eukaryotic Initiation Factor 5A Shows the Presence of the Complete Hypusine Pathway in Leishmania donovani” (PLoS ONE, 2012)

Columns and labels:
[1] = molecular target: T1, LdDOHH (recombinant L. donovani deoxyhypusine hydroxylase) (Leishmania donovani, UniProt D9IFD5); test: [3H]hypusine release assay (periodate oxidation), Hill fit; format: biochemical; details: read-out: concentration that inhibited 50% of activity
T1 construct: gene DOHH; full length, 326 aa (981 bp ORF, ~36 kDa), pET30a EcoRI-HindIII, 6xHis tag printed as C-terminal (~6 kDa, kept), ~42 kDa, E. coli BL21(DE3), Ni-NTA
T1 sequence (D9IFD5 1-326): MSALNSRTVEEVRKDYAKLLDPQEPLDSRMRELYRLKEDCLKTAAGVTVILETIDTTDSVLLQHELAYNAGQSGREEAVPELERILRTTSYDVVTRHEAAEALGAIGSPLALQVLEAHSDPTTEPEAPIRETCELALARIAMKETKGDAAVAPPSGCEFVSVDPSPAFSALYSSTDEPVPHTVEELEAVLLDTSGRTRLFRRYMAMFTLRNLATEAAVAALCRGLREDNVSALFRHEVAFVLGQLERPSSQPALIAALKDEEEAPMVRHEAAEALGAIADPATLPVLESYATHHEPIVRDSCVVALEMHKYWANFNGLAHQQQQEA

[2] = molecular target: T2, hDOHH (recombinant human deoxyhypusine hydroxylase) (Homo sapiens, UniProt Q9BU89); test: [3H]hypusine release assay (periodate oxidation); format: biochemical
T2 construct: gene DOHH; hDOHH-pGEX-4T-3, E. coli BL21, GST tag removed with thrombin
T2 sequence (Q9BU89 1-302): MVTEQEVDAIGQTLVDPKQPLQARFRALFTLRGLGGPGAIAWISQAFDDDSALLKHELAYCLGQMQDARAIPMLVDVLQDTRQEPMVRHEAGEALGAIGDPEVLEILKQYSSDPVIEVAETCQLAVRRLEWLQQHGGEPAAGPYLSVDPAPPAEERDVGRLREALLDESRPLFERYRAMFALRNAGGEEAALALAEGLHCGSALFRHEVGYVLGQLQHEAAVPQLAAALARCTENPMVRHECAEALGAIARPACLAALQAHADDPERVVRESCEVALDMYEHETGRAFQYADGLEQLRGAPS

Row | SMILES | IC50 [1] [µM] | inhibition at 15 µM [2] [%]
1 | Cc1cc(C2CCCCC2)n(O)c(=O)c1 [ciclopirox olamine] | 13.6 | ~32
2 | N[C@@H](Cn1ccc(=O)c(O)c1)C(=O)O [mimosine] | 13 | ~22
